{"source": "patent US20250263370A1", "about": "(Tay Therapeutics Limited, priority 2022, published 2025)", "key": {"[1]": {"test": "Pharmacokinetics and plasma concentration of Example 101 in Lewis rats after oral administration (CIA study)", "assay_type": "in vivo, Lewis rat", "details": "Day 21, Group 4 (CIA + GSK620)"}, "[2]": {"test_system": "IL-17A", "test": "IL-17A levels by ELISA in stimulated human peripheral blood mononuclear cells", "assay_type": "cell-based", "details": "Homo sapiens, PBMC", "experimental": "(§1) CD2, CD3, and CD28 antibody-coated beads from the T-cell activation/expansion kit (Miltenyi Biotec) were added to the PBMC at a bead-to-cell ratio of 1:2.\n(§2) The mixture of PBMCs and beads were seeded into the wells of the round-bottom 96-well plate at a concentration of 2×10^5 cells/well in a total volume of 200 μL. The cells were cultured for 72 hours at 37° C. and 5% CO2 and then supernatants were collected and IL-17A and IL-22 levels were measured by ELISA. […] The final compound concentration ranged from 30,000 nM to 0.005 nM and the final DMSO concentration per well was 0.3%. PBMCs were seeded at approximately 2×10^5 cells/well in the wells of the 96-well tissue culture plate in a total volume of 190 μL. The plate was incubated for 1 hour at 37° C. and 5% CO2. […] The cells were then cultured for 24 hours at 37° C. and 5% CO2. The supernatant was collected and CXCL10 levels were measured by ELISA."}, "[3]": {"test_system": "IL-22", "test": "IL-22 levels by ELISA in stimulated human peripheral blood mononuclear cells", "assay_type": "cell-based", "details": "Homo sapiens, PBMC", "experimental": "as §1, §2"}, "[4]": {"test_system": "CXCL10", "test": "CXCL10 levels by ELISA in IFN-γ stimulated human peripheral blood mononuclear cells", "assay_type": "cell-based", "details": "human PBMC", "experimental": "The impact of Examples 23, 80, and 101 on IL-17A, IL-22, and CXCL10 levels was analyzed in cryopreserved human peripheral blood mononuclear cells (PBMC) by ELISA. […] For IL-17A and IL-22 assays, Examples 23, 80, and 101 were serially diluted from 10 mM in DMSO and further diluted in assay media to 100× the required final concentration, of which, 2 μL was added per well to a round-bottom 96-well tissue culture plate where the final DMSO concentration per well was 0.1%. CD2, CD3, and CD28 antibody-coated beads from the T-cell activation/expansion kit (Miltenyi Biotec) were added to the PBMC at a bead-to-cell ratio of 1:2.\nThe mixture of PBMCs and beads were seeded into the wells of the round-bottom 96-well plate at a concentration of 2×10^5 cells/well in a total volume of 200 μL. The cells were cultured for 72 hours at 37° C. and 5% CO2 and then supernatants were collected and IL-17A and IL-22 levels were measured by ELISA. For the CXCL10 assay, Examples 23, 80, and 101 were serially diluted from 10 mM in DMSO and further diluted in assay media to 100× the required final concentration, of which 2 μL was added per well to a 96-well tissue culture plate. The final compound concentration ranged from 30,000 nM to 0.005 nM and the final DMSO concentration per well was 0.3%. PBMCs were seeded at approximately 2×10^5 cells/well in the wells of the 96-well tissue culture plate in a total volume of 190 μL. The plate was incubated for 1 hour at 37° C. and 5% CO2. The cells were then stimulated with IFN-γ (15 ng/mL final concentration) in a volume of 10 μL. The cells were then cultured for 24 hours at 37° C. and 5% CO2. The supernatant was collected and CXCL10 levels were measured by ELISA."}}, "note": "Where “and” joins values, the source holds several entries; their conditions need not be identical. Equal values may be shown once. Read-outs that look alike come from different tables or passages of the source."}
{"molecule": "CNC(=O)c1cc(C(=O)NC2CC2)cn(Cc2ccccc2)c1=O", "note": "[GSK620]", "values": [{"measurement": "Plasma concentration", "setting": "[1]; per animal", "result": "1590 ng/mL and 4170 ng/mL and 3070 ng/mL and 2740 ng/mL and 1760 ng/mL and 3230 ng/mL and 3450 ng/mL and 2540 ng/mL"}, {"measurement": "concentration at 21 day", "setting": "[1]; Lewis, rat, plasma, oral, read-out: Mean Plasma Concentration", "result": 2820, "unit": "ng/mL"}, {"measurement": "IC50", "setting": "[2]; Test Subject 1, read-out: IL-17A IC50", "result": 80.5, "unit": "nM"}, {"measurement": "IC50", "setting": "[2]; Test Subject 2, read-out: IL-17A IC50", "result": 59.7, "unit": "nM"}, {"measurement": "IC50", "setting": "[2]; Test Subject 3, read-out: IL-17A IC50", "result": 139, "unit": "nM"}, {"measurement": "IC50", "setting": "[2]; mean of test subjects, read-out: IL-17A IC50 Mean", "result": 93.2, "unit": "nM"}, {"measurement": "IC50", "setting": "[3]; Test Subject 1, read-out: IL-22 IC50", "result": 231, "unit": "nM"}, {"measurement": "IC50", "setting": "[3]; Test Subject 2, read-out: IL-22 IC50", "result": 21.6, "unit": "nM"}, {"measurement": "IC50", "setting": "[3]; Test Subject 3, read-out: IL-22 IC50", "result": 106, "unit": "nM"}, {"measurement": "IC50", "setting": "[3]; mean of test subjects, read-out: IL-22 IC50 Mean", "result": 120, "unit": "nM"}, {"measurement": "IC50", "setting": "[4]; Test Subject 1, read-out: CXCL10 IC50", "result": "> 30000", "unit": "nM"}, {"measurement": "IC50", "setting": "[4]; Test Subject 2, read-out: CXCL10 IC50", "result": "> 30000", "unit": "nM"}, {"measurement": "IC50", "setting": "[4]; Test Subject 3, read-out: CXCL10 IC50", "result": "> 30000", "unit": "nM"}, {"measurement": "IC50", "setting": "[4]; mean of test subjects, read-out: CXCL10 IC50 Mean", "result": "> 30000", "unit": "nM"}]}
